Assay results from BindingDB's records for doi:10.1016/j.chembiol.2014.09.011 (Astrazeneca R&D, 2014).

Target: T1, AMP deaminase 2 (Homo sapiens, UniProt Q01433)
T1 sequence (Q01433 whole entry): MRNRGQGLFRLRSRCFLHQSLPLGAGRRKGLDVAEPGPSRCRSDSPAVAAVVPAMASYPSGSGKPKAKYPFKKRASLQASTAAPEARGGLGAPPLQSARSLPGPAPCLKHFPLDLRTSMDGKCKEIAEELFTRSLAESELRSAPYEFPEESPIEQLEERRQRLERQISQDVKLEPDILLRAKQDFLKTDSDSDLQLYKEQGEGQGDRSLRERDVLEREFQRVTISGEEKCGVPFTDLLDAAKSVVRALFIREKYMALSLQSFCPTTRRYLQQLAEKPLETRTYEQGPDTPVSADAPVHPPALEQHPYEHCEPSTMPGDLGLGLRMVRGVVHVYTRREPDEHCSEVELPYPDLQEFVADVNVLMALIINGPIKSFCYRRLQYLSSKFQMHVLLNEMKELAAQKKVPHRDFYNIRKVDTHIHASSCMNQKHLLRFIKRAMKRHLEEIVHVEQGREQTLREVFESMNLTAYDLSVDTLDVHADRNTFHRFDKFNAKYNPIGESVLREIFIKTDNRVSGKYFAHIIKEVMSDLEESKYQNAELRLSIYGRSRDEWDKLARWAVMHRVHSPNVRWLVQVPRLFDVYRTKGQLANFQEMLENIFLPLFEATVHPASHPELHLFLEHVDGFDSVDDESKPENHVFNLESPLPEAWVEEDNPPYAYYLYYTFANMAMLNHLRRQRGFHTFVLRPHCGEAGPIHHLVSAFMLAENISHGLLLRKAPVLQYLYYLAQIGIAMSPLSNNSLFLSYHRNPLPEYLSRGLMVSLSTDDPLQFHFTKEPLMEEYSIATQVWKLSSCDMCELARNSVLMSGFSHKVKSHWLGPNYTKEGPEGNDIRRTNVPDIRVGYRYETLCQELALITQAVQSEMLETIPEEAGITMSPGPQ
Test: AMPD Enzymatic Activity Assay
Details: pH 7.4

IC50 [µM]	Compound
32	C[C@@H](NCc1ccc(-c2ccc(C(=O)O)cn2)cc1)c1cccc2ccncc12 [6-[4-({[(1R)-1-(isoquinolin-8-yl)ethyl]amino}methyl)phenyl]pyridine-3-carboxylic acid (Compound 2)]
0.016	C[C@H](NCc1ccc(-c2ccc(C(=O)O)cn2)cc1)c1cccc2ccncc12 [6-[4-({[(1S)-1-(isoquinolin-8-yl)ethyl]amino}methyl)phenyl]pyridine-3-carboxylic acid (Compound 3)]
